Measured values from PubChem BioAssay AID248 (DTP/NCI, 2004).
Toxic doses and inconclusive results are not listed. Cut-off read from the data, not from the text of the source: active = T/C of 150% or more; inactive = T/C below 125%.

System: L1210 leukemia ip in BDF1 mice, survival T/C
Test: NCI In Vivo Anticancer Drug Screen. Data for tumor model L1210 Leukemia (intraperitoneal) in B6D2F1 (BDF1) mice
Conditions: endpoint: mean survival time, higher = longer survival
Method in brief: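 Antitumor effect is assessed in tumor-bearing animals. Survival in the compound arm is compared with a vehicle-dosed control arm and expressed as their quotient.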

[1] = dose: 400.0 mg/kg/injection, schedule: Q01DX001 (ip), vehicle: saline
[2] = dose: 100.0 mg/kg/injection, schedule: Q01DX009 (ip), vehicle: Klucel (hydroxypropylcellulose) (HPC)
[3] = dose: 200.0 mg/kg/injection, schedule: Q01DX009 (ip), vehicle: Klucel (hydroxypropylcellulose) (HPC)
[4] = dose: 400.0 mg/kg/injection, schedule: Q01DX009 (ip), vehicle: Klucel (hydroxypropylcellulose) (HPC)
[5] = dose: 100.0 mg/kg/injection, schedule: Q01DX001 (ip), vehicle: saline
[6] = dose: 200.0 mg/kg/injection, schedule: Q01DX001 (ip), vehicle: saline
[7] = dose: 100.0 mg/kg/injection, schedule: Q04DX002 (ip), vehicle: Klucel (hydroxypropylcellulose) (HPC)
[8] = dose: 100.0 mg/kg/injection, schedule: Q04DX003 (ip), vehicle: saline with Tween-80
[9] = dose: 200.0 mg/kg/injection, schedule: Q04DX003 (ip), vehicle: saline with Tween-80
[10] = dose: 400.0 mg/kg/injection, schedule: Q04DX003 (ip), vehicle: saline with Tween-80
[11] = dose: 200.0 mg/kg/injection, schedule: Q04DX002 (ip), vehicle: Klucel (hydroxypropylcellulose) (HPC)
[12] = dose: 400.0 mg/kg/injection, schedule: Q04DX002 (ip), vehicle: Klucel (hydroxypropylcellulose) (HPC)
[13] = dose: 100.0 mg/kg/injection, schedule: Q01DX009 (ip), vehicle: saline with Tween-80
[14] = dose: 200.0 mg/kg/injection, schedule: Q01DX009 (ip), vehicle: saline with Tween-80

Measured: T/C

c1ccc(-c2cc(-c3ccccc3)n(-c3ccccc3)c2)cc1
inactive: dose: 100.0 mg/kg/injection, schedule: Q01DX001 (ip), vehicle: saline with Tween-80 87 % of control | dose: 200.0 mg/kg/injection, schedule: Q01DX001 (ip), vehicle: saline with Tween-80 89 % of control

NC(=S)NN=C1CCCC1
inactive: dose: 6.25 mg/kg/injection, schedule: Q04DX003 (ip), vehicle: saline 96 % of control | dose: 12.5 mg/kg/injection, schedule: Q04DX003 (ip), vehicle: saline 94 % of control | dose: 25.0 mg/kg/injection, schedule: Q04DX003 (ip), vehicle: saline 94 % of control

CCCCCCCCCCCCn1ncc2ccc([N+](=O)[O-])cc21
inactive: [1] 96 % of control

O=C(/C=C/c1ccccc1[N+](=O)[O-])c1ccccc1
inactive: [2] 97 % of control | [3] 101 % of control | [4] 98 % of control

NC(N)=N/N=C(/c1ccccc1)c1ccc(N)cc1
inactive: dose: 3.5 mg/kg/injection, schedule: Q01DX Z (oral), vehicle: carboxymethylcellulose (CMC) 102 % of control | dose: 75.0 mg/kg/injection, schedule: Q01DX Z (oral), vehicle: carboxymethylcellulose (CMC) 102 % of control | dose: 150.0 mg/kg/injection, schedule: Q01DX Z (oral), vehicle: carboxymethylcellulose (CMC) 98 % of control | dose: 300.0 mg/kg/injection, schedule: Q01DX Z (oral), vehicle: carboxymethylcellulose (CMC) 104 % of control

COC1C(N)C(O)OC(CO)C1O (stereo unspecified)
inactive: [5] 99 % of control | [6] 103 % of control | [1] 94 % of control

C[C@@H]1C[C@@]2(C)[C@@H](CC[C@@H]3[C@@H]2CC[C@]2(C)[C@@H](O)CC[C@@H]32)CC1=O
inactive: dose: 100.0 mg/kg/injection, schedule: Q01DX Z (sc), vehicle: steriod suspending solution 105 % of control | dose: 200.0 mg/kg/injection, schedule: Q01DX Z (sc), vehicle: steriod suspending solution 108 % of control | dose: 400.0 mg/kg/injection, schedule: Q01DX Z (sc), vehicle: steriod suspending solution 105 % of control | dose: 800.0 mg/kg/injection, schedule: Q01DX Z (sc), vehicle: steriod suspending solution 105 % of control

Cc1ccc(NC(=S)N2CCCCC2)cc1C
inactive: [2] 92 % of control | [3] 93 % of control | [4] 101 % of control

N#CS/C=C/C(N)=O
inactive: dose: 1.0 mg/kg/injection, schedule: Q01DX001 (ip), vehicle: saline 101 % of control | dose: 2.0 mg/kg/injection, schedule: Q01DX001 (ip), vehicle: saline 99 % of control | dose: 2.0 mg/kg/injection, schedule: Q01DX009 (ip), vehicle: saline 103 % of control | dose: 4.0 mg/kg/injection, schedule: Q01DX001 (ip), vehicle: saline 95 % of control | dose: 4.0 mg/kg/injection, schedule: Q01DX009 (ip), vehicle: saline 103 % of control | dose: 8.0 mg/kg/injection, schedule: Q01DX001 (ip), vehicle: saline 94 % of control | dose: 8.0 mg/kg/injection, schedule: Q01DX009 (ip), vehicle: saline 105 % of control

CN1C2CC(=O)CC1C1CCC2C1
inactive: dose: 15.0 mg/kg/injection, schedule: Q01DX001 (ip), vehicle: carboxymethylcellulose (CMC) 103 % of control | dose: 30.0 mg/kg/injection, schedule: Q01DX001 (ip), vehicle: carboxymethylcellulose (CMC) 101 % of control

Cc1ccc2c(ccc(/C=C\c3cc(C)c4cccnc4c3O)[n+]2C)c1
inactive: dose: 100.0 mg/kg/injection, schedule: Q01DX001 (ip), vehicle: carboxymethylcellulose (CMC) 114 % of control

CC(c1ccc2ccccc2c1)c1ccccc1C(=O)O (stereo unspecified)
inactive: dose: 100.0 mg/kg/injection, schedule: Q01DX001 (ip), vehicle: gum acacia 94 % of control | dose: 200.0 mg/kg/injection, schedule: Q01DX001 (ip), vehicle: gum acacia 102 % of control | dose: 400.0 mg/kg/injection, schedule: Q01DX001 (ip), vehicle: gum acacia 89 % of control

O=[N+]([O-])C1CC=CCC1C(Cl)(Cl)Cl (stereo unspecified)
inactive: dose: 5.0 mg/kg/injection, schedule: Q04DX003 (ip), vehicle: saline sonified 95 % of control | dose: 10.0 mg/kg/injection, schedule: Q04DX003 (ip), vehicle: saline sonified 110 % of control | dose: 20.0 mg/kg/injection, schedule: Q04DX003 (ip), vehicle: saline sonified 98 % of control

N#Cc1ccc(N=C(N)N[N+](=O)[O-])cc1
inactive: dose: 25.0 mg/kg/injection, schedule: Q04DX002 (ip), vehicle: Klucel (hydroxypropylcellulose) (HPC) 96 % of control | dose: 50.0 mg/kg/injection, schedule: Q04DX002 (ip), vehicle: Klucel (hydroxypropylcellulose) (HPC) 104 % of control | [7] 104 % of control

On1nnc2ccc(Cl)cc21
inactive: [8] 95 % of control | [9] 95 % of control | [10] 102 % of control

O=C1CCCC(c2ccccc2)C1 (stereo unspecified)
inactive: dose: 75.0 mg/kg/injection, schedule: Q01DX001 (ip), vehicle: other 95 % of control | dose: 150.0 mg/kg/injection, schedule: Q01DX001 (ip), vehicle: other 92 % of control | dose: 300.0 mg/kg/injection, schedule: Q01DX001 (ip), vehicle: other 95 % of control

CC1C[N+](C)(C)N=C1[O-] (stereo unspecified)
inactive: [5] 104 % of control | [6] 98 % of control | [1] 95 % of control

CCCCCCCCCCCCCCCCCCNC(=O)Nc1ccc(OC)cc1
inactive: [7] 93 % of control | [11] 104 % of control | [12] 93 % of control

CSc1ccc(NC(=O)Nc2nccs2)cc1
inactive: dose: 200.0 mg/kg/injection, schedule: Q04DX003 (ip), vehicle: saline sonified 87 % of control | dose: 400.0 mg/kg/injection, schedule: Q04DX003 (ip), vehicle: saline sonified 92 % of control

c1ccc(C2CCN3c4ccc5ccccc5c4NCC23)cc1 (stereo unspecified)
inactive: [7] 107 % of control | [11] 93 % of control | [12] 93 % of control

Nc1nc(N)c(CCCCc2ccccc2)c(-c2ccccc2)n1
inactive: dose: 50.0 mg/kg/injection, schedule: Q01DX009 (ip), vehicle: Klucel (hydroxypropylcellulose) (HPC) 98 % of control | [2] 95 % of control | [3] 95 % of control

CC(C)=CCC(C#N)(CCN(C)C)c1cccc2ccccc12 (stereo unspecified)
inactive: dose: 25.0 mg/kg/injection, schedule: Q01DX009 (ip), vehicle: saline 98 % of control | dose: 50.0 mg/kg/injection, schedule: Q01DX009 (ip), vehicle: saline 101 % of control | dose: 100.0 mg/kg/injection, schedule: Q01DX009 (ip), vehicle: saline 94 % of control | dose: 100.0 mg/kg/injection, schedule: Q04DX003 (ip), vehicle: saline 98 % of control

COc1cc2c(cc1O)CCCC2=O
inactive: dose: 50.0 mg/kg/injection, schedule: Q01DX009 (ip), vehicle: saline with Tween-80 96 % of control | [13] 93 % of control | [14] 96 % of control

COc1ccc(N2C(=O)CC(Cl)C2=O)cc1 (stereo unspecified)
inactive: dose: 22.0 mg/kg/injection, schedule: Q04DX003 (ip), vehicle: Klucel (hydroxypropylcellulose) (HPC) 105 % of control | dose: 44.0 mg/kg/injection, schedule: Q04DX003 (ip), vehicle: Klucel (hydroxypropylcellulose) (HPC) 97 % of control | dose: 87.5 mg/kg/injection, schedule: Q04DX003 (ip), vehicle: saline with Tween-80 103 % of control | dose: 88.0 mg/kg/injection, schedule: Q04DX003 (ip), vehicle: Klucel (hydroxypropylcellulose) (HPC) 111 % of control

CC(=O)NC(C(=O)O)(C(=O)O)C(C)c1c[nH]c2ccccc12 (stereo unspecified)
inactive: [8] 95 % of control | [9] 90 % of control | [10] 95 % of control

CC(=O)N(c1ccccc1)c1ccc(-c2ccc(N(C(C)=O)c3ccccc3)cc2)cc1
inactive: dose: 50.0 mg/kg/injection, schedule: Q01DX001 (ip), vehicle: other 100 % of control | dose: 100.0 mg/kg/injection, schedule: Q01DX001 (ip), vehicle: other 105 % of control | dose: 200.0 mg/kg/injection, schedule: Q01DX001 (ip), vehicle: other 100 % of control | dose: 400.0 mg/kg/injection, schedule: Q01DX001 (ip), vehicle: other 89 % of control

CC(=O)CC(=O)NC(C)CCc1ccccc1 (stereo unspecified)
inactive: [13] 92 % of control | [8] 98 % of control | [14] 92 % of control | [9] 102 % of control | dose: 400.0 mg/kg/injection, schedule: Q01DX009 (ip), vehicle: saline with Tween-80 104 % of control | [10] 98 % of control
